For experiment [1], the target named is V599E Raf (Homo sapiens, UniProt P15056, V600E). Description: Biochemical FRET assay, mutant Raf (phosphorylation of MEK). The conditions noted are these: 0.125 nM V599E Raf, 100 nM biotin-MEK, 25 μM ATP, read-out: Raf (mut) inhibition. In a few lines: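 V599E Raf (0.125 nM) preincubated 20 min with inhibitor and 100 nM biotin-MEK in HEPES pH 7.4 with Mg2+/Mn2+, then reacted with 25 μM ATP for 60 min at room temperature. EDTA-stopped; phospho-MEK1/2 (Ser217/221) detected by Eu/APC TR-FRET after 90 min.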

Experiment [2] relates to phospho-ERK in melanoma derived WM-266-4 cells. Description: Mechanistic cellular assay for Raf kinase activity (phospho-ERK, Bio-Plex). In kind it is cell-based. The conditions noted are these: Homo sapiens, treated 1-2 hr at 37° C., serum free medium, read-out: pERK EC50. In a few lines: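 WM-266-4 melanoma cells (wild-type/V600D BRaf) grown overnight in 10% FBS RPMI, then treated 1–2 h at 37 °C in serum-free RPMI with eight 3-fold dilutions of compound (from 5 mM DMSO stock, 1000× dilution). Lysate phospho-ERK1,2 quantified by Bio-Plex bead immunoassay.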

V599E Raf, sequence (P15056 whole entry V600E): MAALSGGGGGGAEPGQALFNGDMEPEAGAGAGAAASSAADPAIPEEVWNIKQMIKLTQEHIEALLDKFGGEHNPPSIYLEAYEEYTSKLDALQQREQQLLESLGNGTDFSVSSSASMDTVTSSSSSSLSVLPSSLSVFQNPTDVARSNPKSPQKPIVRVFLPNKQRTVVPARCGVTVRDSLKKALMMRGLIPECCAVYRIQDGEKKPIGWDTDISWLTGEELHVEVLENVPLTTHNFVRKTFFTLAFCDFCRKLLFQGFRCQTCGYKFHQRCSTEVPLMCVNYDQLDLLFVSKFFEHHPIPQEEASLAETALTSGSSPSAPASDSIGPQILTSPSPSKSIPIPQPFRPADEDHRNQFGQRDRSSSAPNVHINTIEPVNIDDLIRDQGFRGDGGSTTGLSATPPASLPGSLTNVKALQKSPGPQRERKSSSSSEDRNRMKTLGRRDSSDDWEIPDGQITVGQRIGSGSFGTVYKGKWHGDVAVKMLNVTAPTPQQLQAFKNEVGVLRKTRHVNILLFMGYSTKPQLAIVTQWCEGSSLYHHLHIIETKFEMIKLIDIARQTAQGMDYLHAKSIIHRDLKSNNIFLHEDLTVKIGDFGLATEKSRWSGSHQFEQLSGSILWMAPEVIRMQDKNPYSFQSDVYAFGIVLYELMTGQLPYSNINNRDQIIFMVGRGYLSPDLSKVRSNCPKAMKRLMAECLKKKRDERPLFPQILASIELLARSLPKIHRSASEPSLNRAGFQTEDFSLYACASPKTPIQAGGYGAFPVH

For `CCn1cnc2cnc(C(=O)NC(C)c3cnc(Nc4cnc(C(C)(C)C)nc4)s3)cc21` (stereo not drawn) [Example 285], the IC50 in experiment [1] is ≤ 100 nM. Also, the EC50 (in general, the concentration that produces a half-maximal response) in experiment [2] was ≤ 100 nM.

Take `CC(NC(=O)c1cc2c(cn1)ncn2C1CCC1)c1cnc(Nc2cnc(C(C)(C)C)nc2)s1` (stereo not drawn) [Example 286]: in experiment [1], the IC50 is ≤ 100 nM. For the same compound, in experiment [2], the EC50 is ≤ 100 nM.

Turning to `CC(NC(=O)c1cc2c(cn1)nc(N)n2C)c1cnc(Nc2cnc(C(C)(C)C)nc2)s1` (stereo not drawn) [Example 287], the IC50 in experiment [1] is ≤ 100 nM. Further, the EC50 in experiment [2] was ≤ 100 nM.

On to `CC(C)Oc1cc(C(F)(F)F)ccc1Nc1ncc(C(C)NC(=O)c2cc3c(cn2)ncn3C)s1` (stereo not drawn) [Example 289], for which the IC50 in experiment [1] is ≤ 100 nM. In addition, the EC50 in experiment [2] was in the range of 100 to 1000 nM.

As for `CC(NC(=O)c1cc2c(cn1)ncn2C)c1cnc(Nc2ccc(F)c(C(C)(C)C(F)(F)F)c2)s1` (stereo not drawn) [Example 290], the IC50 in experiment [1] was ≤ 100 nM. Further, the EC50 in experiment [2] was ≤ 100 nM.

As for `CCn1cnc2cnc(C(=O)NC(C)c3cnc(Nc4ccc(C(F)(F)F)nc4)s3)cc21` (stereo not drawn) [Example 291], in experiment [1], the IC50 is ≤ 100 nM. The EC50 in experiment [2] is 100 to 1000 nM.

With `CC(NC(=O)c1cc2c(cn1)ncn2C1CCC1)c1cnc(Nc2ccc(C(F)(F)F)nc2)s1` (stereo not drawn) [Example 292], in experiment [1], the IC50 is ≤ 100 nM. In addition, the EC50 in experiment [2] was ≤ 100 nM.

As to `CCc1nc(C(C)(C)C)ncc1Nc1ncc(C(C)NC(=O)c2cc3c(cn2)ncn3C)s1` (stereo not drawn) [Example 295], in experiment [1], the IC50 lay in the range of 100 to 1000 nM. The EC50 in experiment [2] was ≤ 100 nM.

Regarding `CC(NC(=O)c1cn2ccnc2cn1)c1cnc(Nc2ccc(C(F)(F)F)cc2)s1` (stereo not drawn) [Example 296], the IC50 in experiment [1] is ≤ 100 nM. Besides, the EC50 in experiment [2] lay in the range of 100 to 1000 nM.

For the compound `C[C@@H](NC(=O)c1cn2c(Br)cnc2cn1)c1cnc(Nc2ccc(C(F)(F)F)cc2)s1` [Example 298], the IC50 in experiment [1] was ≤ 100 nM. Also, in experiment [2], the EC50 is ≤ 100 nM.

In the case of `CC(NC(=O)c1cn2c(Cl)cnc2cn1)c1cnc(Nc2ccc(C(F)(F)F)cc2)s1` (stereo not drawn) [Example 299], in experiment [1], the IC50 was ≤ 100 nM. In experiment [2], the EC50 was in the range of 100 to 1000 nM.

As for `CC(NC(=O)c1cn2c(C(F)(F)F)cnc2cn1)c1cnc(Nc2ccc(C(F)(F)F)cc2)s1` (stereo not drawn) [Example 300], in experiment [1], the IC50 is ≤ 100 nM. Also, in experiment [2], the EC50 is 1000 to 10000 nM.

For the compound `CC(NC(=O)c1cnc2nccn2c1)c1cnc(Nc2ccc(C(F)(F)F)cc2)s1` (stereo not drawn) [Example 309], in experiment [1], the IC50 is 100 to 1000 nM. In addition, the EC50 in experiment [2] was 1000 to 10000 nM.

As for `CC(NC(=O)c1cnc2ncccn12)c1cnc(Nc2ccc(C(F)(F)F)cc2)s1` (stereo not drawn) [Example 310], in experiment [1], the IC50 is ≤ 100 nM. For the same compound, the EC50 in experiment [2] was 1000 to 10000 nM.

Take `CC(=O)N1CCn2c(C(=O)N[C@H](C)c3ncc(C(=O)Nc4cc(C(F)(F)F)c(Cl)cn4)s3)cnc2C1` [Example 316]: in experiment [1], the IC50 is 100 to 1000 nM. In addition, in experiment [2], the EC50 fell in the range of 1000 to 10000 nM.

Regarding `C[C@@H](NC(=O)c1cnc2n1CCN(C)C2)c1ncc(C(=O)Nc2cc(C(F)(F)F)c(Cl)cn2)s1` [Example 317], the IC50 in experiment [1] lay within 100 to 1000 nM. Also, the EC50 in experiment [2] is 1000 to 10000 nM.

Take `CCN1CCn2c(C(=O)NC(C)c3cnc(Nc4ccc(C(F)(F)F)cc4)s3)cnc2C1` (stereo not drawn) [Example 318]: the IC50 in experiment [1] is ≤ 100 nM. For the same compound, the EC50 in experiment [2] lay within 1000 to 10000 nM.

As for `CC(NC(=O)c1cnn2cc(-c3cccnc3)ccc12)c1ncc(C(=O)Nc2cc(C(F)(F)F)c(Cl)cn2)s1` (stereo not drawn) [Example 320], the IC50 in experiment [1] is ≤ 100 nM. In addition, in experiment [2], the EC50 was ≤ 100 nM.

As to `C[C@@H](NC(=O)c1cnn2cc(-c3cccnc3)ccc12)c1cc(C(=O)Nc2cccc(OC(F)(F)F)c2)on1` [Example 332], the IC50 in experiment [1] lay in the range of 100 to 1000 nM. For the same compound, in experiment [2], the EC50 was ≤ 100 nM.

Consider `Cc1ccc(NC(=O)c2cc([C@@H](C)NC(=O)c3cnn4cc(-c5ccncn5)cnc34)no2)cc1C(F)(F)F` [Example 333], for which, in experiment [1], the IC50 lay in the range of 100 to 1000 nM. For the same compound, the EC50 in experiment [2] is 100 to 1000 nM.

As for `Cc1cn(-c2cccc(C(=O)N[C@H](C)c3ncc(C(=O)Nc4cc(C(F)(F)F)c(Cl)cn4)s3)n2)cn1` [Example 334], the IC50 in experiment [1] is 100 to 1000 nM. Besides, in experiment [2], the EC50 fell in the range of 1000 to 10000 nM.

In the case of `CC(NC(=O)c1cc2c(cn1)ncn2C)c1ccc(Nc2ccc(C(F)(F)F)cc2)nc1` (stereo not drawn) [Example 339], in experiment [1], the IC50 is ≤ 100 nM. The EC50 in experiment [2] fell in the range of 100 to 1000 nM.

Consider `Cc1nc(Nc2ccc(C(F)(F)F)cc2)sc1C(C)NC(=O)c1cc2c(cn1)ncn2C` (stereo not drawn) [Example 340], for which, in experiment [1], the IC50 is ≤ 100 nM. In addition, the half-maximal effective concentration (EC50) in experiment [2] was 1000 to 10000 nM.

Take `Cc1nc(C(C)NC(=O)c2cc3c(cn2)ncn3C)c(C)nc1Nc1ccc(C(F)(F)F)cc1` (stereo not drawn) [Example 341]: the IC50 in experiment [1] lay in the range of 100 to 1000 nM. In addition, the EC50 in experiment [2] was 1000 to 10000 nM.

With `C[C@@H](NC(=O)c1cc2c(cn1)ncn2C1CN(S(C)(=O)=O)C1)c1cnc(Nc2ccc(C(F)(F)F)cc2)s1` [Example 346], the IC50 in experiment [1] was ≤ 100 nM. In addition, the EC50 in experiment [2] was ≤ 100 nM.

Consider `CC(=O)N1CC(n2cnc3cnc(C(=O)N[C@H](C)c4cnc(Nc5ccc(C(F)(F)F)cc5)s4)cc32)C1` [Example 347], for which, in experiment [1], the IC50 was ≤ 100 nM. Further, the EC50 in experiment [2] fell in the range of 100 to 1000 nM.

As for `C[C@@H](NC(=O)c1cc2c(cn1)ncn2C1CN(CCO)C1)c1cnc(Nc2ccc(C(F)(F)F)cc2)s1` [Example 348], the IC50 in experiment [1] was ≤ 100 nM. The EC50 in experiment [2] was ≤ 100 nM.

With `CC(NC(=O)c1cc2c(cn1)ncn2C)c1cnc(Nc2cc(C#N)cc(C(C)(C)C)c2)s1` (stereo not drawn) [Example 350], the IC50 in experiment [1] was ≤ 100 nM. In experiment [2], the EC50 fell in the range of 1000 to 10000 nM.

For the compound `COC(=O)c1cc(Nc2ncc(C(C)NC(=O)c3cc4c(cn3)ncn4C)s2)cc(C(C)(C)C)c1` (stereo not drawn) [Example 351], the IC50 in experiment [1] was ≤ 100 nM. The EC50 in experiment [2] was 100 to 1000 nM.

In the case of `CC(NC(=O)c1cc2c(cn1)ncn2C)c1cnc(Nc2cc(C(=O)O)cc(C(C)(C)C)c2)s1` (stereo not drawn) [Example 352], in experiment [1], the IC50 lay within 100 to 1000 nM. In experiment [2], the EC50 lay within 1000 to 10000 nM.

For the compound `CC(NC(=O)c1cc2c(cn1)ncn2C)c1cnc(Nc2cc(C(N)=O)cc(C(C)(C)C)c2)s1` (stereo not drawn) [Example 353], in experiment [1], the IC50 was ≤ 100 nM. The EC50 in experiment [2] lay in the range of 1000 to 10000 nM.

As for `CC(NC(=O)c1cc2c(cn1)ncn2CC(=O)O)c1cnc(Nc2ccc(C(F)(F)F)cc2)s1` (stereo not drawn) [Example 354], in experiment [1], the IC50 was ≤ 100 nM. Further, the EC50 in experiment [2] fell in the range of 1000 to 10000 nM.

Turning to `CNC(=O)Cn1cnc2cnc(C(=O)NC(C)c3cnc(Nc4ccc(C(F)(F)F)cc4)s3)cc21` (stereo not drawn) [Example 356], the IC50 in experiment [1] is ≤ 100 nM. Further, the EC50 in experiment [2] lay within 100 to 1000 nM.

For the origin of these results see patent US20120040951A1, “HETEROARYL COMPOUNDS USEFUL AS RAF KINASE INHIBITORS” (priority 2008, published 2012).
